Test results published in US20120088694A1, “CELL ASSAY METHODS AND ARTICLES” (NanoInk, Inc., priority 2010, published 2012).

Tested on: NIH 3T3 fibroblasts
Experiment: Fibroblast spreading and migration on fibronectin patterns with PEG hydrogel delivering compound
Assay type: cell-based
Description: An exemplary method is described here for patterning cells onto surfaces using direct deposition of extracellular matrix (ECM) proteins and for delivering multiple compounds to individual cells. First, actin polymerization and stress fiber formation was followed over a 2 hour time period. Second, multiple ECM proteins were patterned on the same substrate and side-by-side analysis of single cells was done to characterize differential responses. Finally, polyethylene glycol with or without Cytochalasin-D (250 μM or 500 μM) was delivered to individual cells. A method was established for single cell analysis with multiple compounds on the same substrate. The NLP 2000 (NanoInk, Inc., Skokie, Ill.) fabrication system was used for patterning of ECM proteins and hydrogel composites. After approximately 4 hours, substrates were rinsed and non-specific cell binding is blocked with a solution of bovine serum albumin. NIH 3T3 fibroblasts (ATCC) were added at high density for 30 minutes, at which point non-adherent cells are washed and removed. Complete media was then added for between 0.5 and 3.5 hours before paraformaldehyde fixation, staining and analysis. Cells attach to approximately 75% of the patterns deposited onto glass surfaces. Cell morphology was controlled and actin polymerization was more developed with more elongated stress fibers at 2 hours versus earlier time points. […] Combinatorial experimentation is increasingly important with regard to the cellular microenvironment.
A mixture of PEG-DMA, 4-arm PEG thiol, and Cytochalasin D, a compound of interest, is patterned onto an epoxy-coated glass slide. After curing with UV, fibronectin, an ECM protein, was patterned onto the glass slide around the cured hydrogel. In a control hydrogel pattern, only PEG-DMA and 4-arm PEG thiol, but not any compound of interest, were used for fabricating the hydrogel.
Subsequently, 3T3 fibroblasts were plated onto the glass slide with PEG and fibronectin as described above. […] FIGS. 11 and 12 show the time course following spreading and migration of fibroblasts over a period of 4 hours.

[1] = cells cultured for 2 hours, Cytochalasin D in the PEG hydrogel vs control hydrogel, 15 patterns per group

Compound: C=C1[C@@H](C)[C@H]2[C@H](Cc3ccccc3)NC(=O)[C@]23[C@H](OC(C)=O)/C=C/[C@@](C)(O)C(=O)[C@@H](C)C/C=C/[C@H]3[C@@H]1O [Cytochalasin D]
- migration of fibroblasts from the fibronectin patterned area (250 and 500 μM in PEG hydrogel, time course over 4 hours, vs PEG without CytoD): prevented migration of fibroblasts from the fibronectin patterned area
- cell spreading and migration (Cytochalasin-D (250 μM or 500 μM) delivered in PEG hydrogel to individual cells): decline in cell spreading and migration
- number of cells on patterns (images, average fluorescence intensity) [1]: significantly fewer cells
- spreading and/or migration away from the patterns [1]: less spreading and/or migration away from the patterns
